The target in experiment [1] is Serine/threonine-protein kinase RIO2 (Homo sapiens) (UniProt Q9BVS4). The experiment is described as follows: Selectivity interaction (KinomeScan (DiscoverX)) EUB0000655a RIOK2. The settings on record: at 10 µM.
For experiment [2], the target named is T1, cGMP-dependent protein kinase 1 (Homo sapiens) (UniProt Q13976).
T1 sequence (whole entry): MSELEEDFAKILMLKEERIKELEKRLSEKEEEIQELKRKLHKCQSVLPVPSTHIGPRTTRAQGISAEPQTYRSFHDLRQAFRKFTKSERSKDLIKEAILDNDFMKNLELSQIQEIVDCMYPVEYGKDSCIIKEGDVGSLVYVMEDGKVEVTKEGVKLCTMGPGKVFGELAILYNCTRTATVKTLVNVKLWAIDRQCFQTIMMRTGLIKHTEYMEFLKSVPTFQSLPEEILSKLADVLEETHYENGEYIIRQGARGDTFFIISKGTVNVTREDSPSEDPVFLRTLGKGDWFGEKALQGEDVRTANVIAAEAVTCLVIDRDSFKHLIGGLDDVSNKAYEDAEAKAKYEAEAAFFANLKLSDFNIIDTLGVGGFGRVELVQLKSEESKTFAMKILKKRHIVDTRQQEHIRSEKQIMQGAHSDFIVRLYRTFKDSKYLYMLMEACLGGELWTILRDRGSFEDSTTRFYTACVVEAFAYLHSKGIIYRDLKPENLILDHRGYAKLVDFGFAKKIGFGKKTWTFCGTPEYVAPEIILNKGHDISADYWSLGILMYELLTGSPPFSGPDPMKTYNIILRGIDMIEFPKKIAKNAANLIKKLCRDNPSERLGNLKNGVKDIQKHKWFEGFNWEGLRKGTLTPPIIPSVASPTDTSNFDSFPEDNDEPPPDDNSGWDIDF
The experiment is described as follows: Selectivity interaction (KinomeScan (DiscoverX)) EUB0000045b PRKG1.

Experiment [3] deals with T2, Mitogen-activated protein kinase kinase kinase 6 (Homo sapiens) (UniProt O95382).
T2 sequence (whole entry): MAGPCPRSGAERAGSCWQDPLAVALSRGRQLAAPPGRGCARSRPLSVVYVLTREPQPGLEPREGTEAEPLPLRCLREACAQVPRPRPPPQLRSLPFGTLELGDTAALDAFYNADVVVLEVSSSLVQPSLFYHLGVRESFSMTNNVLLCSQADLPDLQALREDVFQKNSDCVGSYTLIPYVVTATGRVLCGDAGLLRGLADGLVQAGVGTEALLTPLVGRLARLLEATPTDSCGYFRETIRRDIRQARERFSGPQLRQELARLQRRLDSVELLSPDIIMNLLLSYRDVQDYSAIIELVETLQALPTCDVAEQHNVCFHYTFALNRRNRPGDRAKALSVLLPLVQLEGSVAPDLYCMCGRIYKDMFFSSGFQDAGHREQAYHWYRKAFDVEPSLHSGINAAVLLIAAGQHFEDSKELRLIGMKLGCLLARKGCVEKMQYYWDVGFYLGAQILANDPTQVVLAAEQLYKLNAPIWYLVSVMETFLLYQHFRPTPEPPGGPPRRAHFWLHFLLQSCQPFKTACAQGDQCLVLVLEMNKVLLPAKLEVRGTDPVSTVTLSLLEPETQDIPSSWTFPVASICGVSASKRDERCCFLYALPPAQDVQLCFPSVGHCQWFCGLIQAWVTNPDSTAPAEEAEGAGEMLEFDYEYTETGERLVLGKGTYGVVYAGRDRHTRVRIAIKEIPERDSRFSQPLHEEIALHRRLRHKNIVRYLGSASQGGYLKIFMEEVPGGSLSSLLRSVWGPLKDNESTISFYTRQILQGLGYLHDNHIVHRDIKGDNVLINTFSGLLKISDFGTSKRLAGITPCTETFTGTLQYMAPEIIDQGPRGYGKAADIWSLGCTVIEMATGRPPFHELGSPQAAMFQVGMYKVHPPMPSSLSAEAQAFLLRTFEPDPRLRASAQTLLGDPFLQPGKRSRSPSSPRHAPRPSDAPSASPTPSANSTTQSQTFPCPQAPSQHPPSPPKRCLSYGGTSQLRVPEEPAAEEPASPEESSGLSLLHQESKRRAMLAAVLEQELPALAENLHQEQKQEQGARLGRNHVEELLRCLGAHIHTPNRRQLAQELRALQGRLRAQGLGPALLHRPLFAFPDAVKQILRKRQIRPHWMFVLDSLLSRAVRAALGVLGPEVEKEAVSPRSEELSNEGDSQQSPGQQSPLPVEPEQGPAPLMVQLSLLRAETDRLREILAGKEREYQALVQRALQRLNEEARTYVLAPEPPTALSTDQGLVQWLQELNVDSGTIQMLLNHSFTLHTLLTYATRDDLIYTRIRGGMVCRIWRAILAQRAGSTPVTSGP
The experiment is described as follows: Selectivity interaction (ActivX KiNativ screen (kinase selectivity in THP-1 cell lysates)) EUB0000639a MAP3K6. It is filed as subcellular. The settings on record: lysate, at 0.01 µM.

The target of experiment [4] is T3, Dual specificity mitogen-activated protein kinase kinase 5 (Homo sapiens) (UniProt Q13163).
T3 sequence (whole entry): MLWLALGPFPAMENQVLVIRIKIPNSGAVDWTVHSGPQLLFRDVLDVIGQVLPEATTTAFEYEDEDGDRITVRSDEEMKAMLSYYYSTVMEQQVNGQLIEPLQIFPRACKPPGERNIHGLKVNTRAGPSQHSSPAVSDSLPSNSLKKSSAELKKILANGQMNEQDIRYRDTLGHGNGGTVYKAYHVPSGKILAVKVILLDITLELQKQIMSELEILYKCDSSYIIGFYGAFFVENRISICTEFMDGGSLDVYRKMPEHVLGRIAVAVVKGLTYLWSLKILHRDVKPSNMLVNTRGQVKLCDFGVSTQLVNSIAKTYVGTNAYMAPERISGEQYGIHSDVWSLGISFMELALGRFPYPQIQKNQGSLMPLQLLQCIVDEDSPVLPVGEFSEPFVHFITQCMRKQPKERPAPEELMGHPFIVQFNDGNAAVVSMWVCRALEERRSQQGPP
The experiment is described as follows: Selectivity interaction (KinomeScan (DiscoverX)) EUB0000595a MAP2K5. As to conditions: at 10 µM.

Experiment [5] has as its target T4, Serine/threonine-protein kinase Nek2 (Homo sapiens) (UniProt P51955).
T4 sequence (whole entry): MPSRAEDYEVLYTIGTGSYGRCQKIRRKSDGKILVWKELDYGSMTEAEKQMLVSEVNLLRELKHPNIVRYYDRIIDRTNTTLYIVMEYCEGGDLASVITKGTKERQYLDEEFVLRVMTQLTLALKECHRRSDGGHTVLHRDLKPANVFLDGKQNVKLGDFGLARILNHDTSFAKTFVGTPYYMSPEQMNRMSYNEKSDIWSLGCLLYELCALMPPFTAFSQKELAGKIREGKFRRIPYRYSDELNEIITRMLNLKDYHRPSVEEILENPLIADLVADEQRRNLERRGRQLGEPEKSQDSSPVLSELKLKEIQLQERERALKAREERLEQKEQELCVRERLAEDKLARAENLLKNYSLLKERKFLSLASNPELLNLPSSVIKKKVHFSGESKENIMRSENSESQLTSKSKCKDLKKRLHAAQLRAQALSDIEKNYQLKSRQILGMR
The experiment is described as follows: Selectivity interaction (KinomeScan (DiscoverX)) EUB0000618a NEK2. The settings on record: at 10 µM.

Serine/threonine-protein kinase RIO2 (Homo sapiens), sequence (Q9BVS4 whole entry, looked up): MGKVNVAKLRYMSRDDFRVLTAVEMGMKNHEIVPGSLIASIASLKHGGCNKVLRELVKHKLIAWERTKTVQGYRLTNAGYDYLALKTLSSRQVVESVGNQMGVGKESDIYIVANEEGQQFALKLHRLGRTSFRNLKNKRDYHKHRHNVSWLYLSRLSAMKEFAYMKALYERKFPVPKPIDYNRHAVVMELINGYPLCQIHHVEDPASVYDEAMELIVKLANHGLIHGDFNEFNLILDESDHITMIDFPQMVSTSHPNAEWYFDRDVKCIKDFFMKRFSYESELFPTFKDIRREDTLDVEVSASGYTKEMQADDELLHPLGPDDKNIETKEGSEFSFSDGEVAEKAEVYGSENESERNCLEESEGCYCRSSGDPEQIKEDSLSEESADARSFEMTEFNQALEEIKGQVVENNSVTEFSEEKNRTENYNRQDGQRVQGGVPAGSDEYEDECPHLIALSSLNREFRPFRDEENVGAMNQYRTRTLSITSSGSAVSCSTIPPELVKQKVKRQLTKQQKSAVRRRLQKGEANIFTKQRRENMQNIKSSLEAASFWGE

Regarding `CN(C)CCOc1ccc(-c2nc(-c3ccncc3)c(-c3ccc4c(c3)CC/C4=N\O)[nH]2)cc1`, the % of control in experiment [1] is 6%.

For `C=CC(=O)Nc1cc(-n2c(=O)ccc3cnc4ccc(-c5ccc(NS(C)(=O)=O)cc5)cc4c32)ccc1C`, the values for the % of control in experiment [2] (at 1 µM) and in experiment [2] (at 10 µM) were 87% and 100%, respectively. For the compound `CC[C@@H]1[C@H](F)C(=O)N[C@@H]1COc1nccc2cc(C(N)=O)c(OC)cc12` [ZIMLOVISERTIB], the % of inhibition in experiment [3] worked out at 3.1%. Turning to `COCC(=O)NC/C=C/c1ccc2ncnc(Nc3ccc(Oc4ccc(C)nc4)c(C)c3)c2c1` [CP-724714], the % of control in experiment [4] is 0.2%. `O[C@H]1CC[C@H](Nc2ncc3nc(Nc4c(F)cc(F)cc4F)n([C@H]4CCOC4)c3n2)CC1` came in with a % of control in experiment [5] of 100%.
